In one experiment the target is T1, rat AHR (Rattus norvegicus, UniProt P41738).
T1 construct: The reporter gene was introduced into a genome of rat hepatoma H-4-II-E cells via lentiviral infection; endogenous in cells; host or cells: H-4-II-E (rat hepatoma) with a lentivirally integrated 6x XRE Nano-luc reporter
T1 sequence (P41738 10-853): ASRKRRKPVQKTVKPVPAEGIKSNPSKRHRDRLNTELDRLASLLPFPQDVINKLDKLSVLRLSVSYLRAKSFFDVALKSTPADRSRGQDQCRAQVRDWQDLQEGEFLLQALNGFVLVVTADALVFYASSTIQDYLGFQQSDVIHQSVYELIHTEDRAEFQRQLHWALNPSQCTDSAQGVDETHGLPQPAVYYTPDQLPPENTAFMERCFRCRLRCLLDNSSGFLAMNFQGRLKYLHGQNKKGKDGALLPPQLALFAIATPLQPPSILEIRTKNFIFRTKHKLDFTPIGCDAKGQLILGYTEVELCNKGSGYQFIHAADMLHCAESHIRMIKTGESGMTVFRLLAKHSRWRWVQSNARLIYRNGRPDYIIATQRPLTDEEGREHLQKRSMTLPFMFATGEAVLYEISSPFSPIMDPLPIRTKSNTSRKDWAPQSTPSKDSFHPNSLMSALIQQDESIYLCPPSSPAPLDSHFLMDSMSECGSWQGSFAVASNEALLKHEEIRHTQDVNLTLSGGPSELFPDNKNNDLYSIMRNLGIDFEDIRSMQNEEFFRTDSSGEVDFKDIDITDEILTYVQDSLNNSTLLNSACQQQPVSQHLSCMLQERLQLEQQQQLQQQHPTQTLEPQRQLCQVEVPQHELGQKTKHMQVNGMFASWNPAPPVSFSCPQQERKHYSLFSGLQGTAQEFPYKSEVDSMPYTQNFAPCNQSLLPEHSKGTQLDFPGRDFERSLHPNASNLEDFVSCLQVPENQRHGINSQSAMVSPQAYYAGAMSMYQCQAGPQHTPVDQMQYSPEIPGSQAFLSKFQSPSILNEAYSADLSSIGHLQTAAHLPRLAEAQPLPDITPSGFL
Briefly: Rat AHR agonist luciferase assay (6x XRE Nano-luc reporter in H-4-II-E cells). The class given is cell-based. As to conditions: AHR activation, rat hepatoma H-4-II-E reporter cells, incubated 4 to 24 hours; read-out: H4IIE EC50. An excerpt:
A lentivirus containing the reporter gene was generated by co-transfecting the transfer plasmid with packaging plasmids into 293T cells using conventional transfection methods in the art, followed by purification. The reporter gene was introduced into a genome of rat hepatoma H-4-II-E cells via lentiviral infection, and cells stably expressing the reporter gene were selected with puromycin for the rat AHR agonist luciferase assay.

The target of the next experiment is mouse AHR (Mus musculus, UniProt P30561). Briefly: Mouse AHR agonist luciferase assay (6x XRE Nano-luc reporter in Hepa1-6 cells).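 Also: stable Hepa1-6 reporter line, 4–24 h exposure, 11-point serial dilution, Nano-Glo luminescence as fold over medium-only baseline, EC50 from four-parameter fit of activation fold.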
A further experiment deals with T2, human AHR (Homo sapiens, UniProt P35869).
T2 sequence (P35869 11-848): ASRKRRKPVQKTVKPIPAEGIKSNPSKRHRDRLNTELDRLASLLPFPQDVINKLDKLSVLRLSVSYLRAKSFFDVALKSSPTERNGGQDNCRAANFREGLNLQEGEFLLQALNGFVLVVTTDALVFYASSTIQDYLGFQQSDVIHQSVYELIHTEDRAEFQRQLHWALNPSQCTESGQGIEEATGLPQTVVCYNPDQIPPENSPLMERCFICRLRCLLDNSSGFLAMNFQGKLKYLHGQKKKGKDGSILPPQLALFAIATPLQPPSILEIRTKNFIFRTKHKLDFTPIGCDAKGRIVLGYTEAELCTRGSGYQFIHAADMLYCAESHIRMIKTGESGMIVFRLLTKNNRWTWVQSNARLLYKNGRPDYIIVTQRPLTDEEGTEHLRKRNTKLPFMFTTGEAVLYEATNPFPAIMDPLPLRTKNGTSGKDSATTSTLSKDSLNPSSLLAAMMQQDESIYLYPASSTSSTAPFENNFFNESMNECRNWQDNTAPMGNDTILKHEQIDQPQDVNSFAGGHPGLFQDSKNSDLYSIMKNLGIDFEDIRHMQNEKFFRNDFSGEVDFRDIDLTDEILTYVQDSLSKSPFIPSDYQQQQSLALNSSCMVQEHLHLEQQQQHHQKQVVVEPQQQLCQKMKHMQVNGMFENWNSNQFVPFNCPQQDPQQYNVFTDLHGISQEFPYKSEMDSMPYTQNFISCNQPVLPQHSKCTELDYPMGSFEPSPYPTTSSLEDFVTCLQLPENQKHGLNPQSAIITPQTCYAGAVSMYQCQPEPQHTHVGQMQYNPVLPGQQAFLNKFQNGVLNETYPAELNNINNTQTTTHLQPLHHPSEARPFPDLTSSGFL
Briefly: Human AHR agonist luciferase assay (CYP1A1 promoter Nano-luc reporter in HepG2 cells).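 Also: stably transfected HepG2 clone, DRE-containing 1200 bp promoter region driving Nano-luc, treated 4 to 24 h with 11-point dilutions in tryptophan-free medium, medium-only wells as baseline.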

The record followed here is patent US20260226041A1 (ARIGENX THERAPEUTICS CO., LTD., priority 2023, published 2026).

mouse AHR, sequence (P30561 10-805 limits assumed): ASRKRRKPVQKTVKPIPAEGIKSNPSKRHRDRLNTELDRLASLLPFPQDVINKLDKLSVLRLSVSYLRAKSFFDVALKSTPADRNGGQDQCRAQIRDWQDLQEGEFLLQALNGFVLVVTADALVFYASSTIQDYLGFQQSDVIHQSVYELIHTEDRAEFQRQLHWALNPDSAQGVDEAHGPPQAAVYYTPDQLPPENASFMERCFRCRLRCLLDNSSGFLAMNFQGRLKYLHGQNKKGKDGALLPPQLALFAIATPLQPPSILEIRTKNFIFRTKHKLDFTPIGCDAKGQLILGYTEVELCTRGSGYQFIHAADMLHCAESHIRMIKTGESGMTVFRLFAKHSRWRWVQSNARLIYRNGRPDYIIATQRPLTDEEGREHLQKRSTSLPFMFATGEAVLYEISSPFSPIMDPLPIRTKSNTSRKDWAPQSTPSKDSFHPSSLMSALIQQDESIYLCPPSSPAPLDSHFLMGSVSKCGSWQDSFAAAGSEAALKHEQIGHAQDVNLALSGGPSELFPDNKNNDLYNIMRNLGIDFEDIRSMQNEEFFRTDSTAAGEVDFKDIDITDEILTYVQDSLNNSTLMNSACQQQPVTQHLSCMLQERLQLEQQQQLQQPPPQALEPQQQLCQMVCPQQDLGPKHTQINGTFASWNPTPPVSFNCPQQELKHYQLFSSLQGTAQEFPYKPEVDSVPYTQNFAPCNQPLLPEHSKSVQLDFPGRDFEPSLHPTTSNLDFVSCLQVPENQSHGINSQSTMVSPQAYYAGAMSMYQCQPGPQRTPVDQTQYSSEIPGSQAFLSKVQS
mouse AHR, sequence (P53762 whole entry partner): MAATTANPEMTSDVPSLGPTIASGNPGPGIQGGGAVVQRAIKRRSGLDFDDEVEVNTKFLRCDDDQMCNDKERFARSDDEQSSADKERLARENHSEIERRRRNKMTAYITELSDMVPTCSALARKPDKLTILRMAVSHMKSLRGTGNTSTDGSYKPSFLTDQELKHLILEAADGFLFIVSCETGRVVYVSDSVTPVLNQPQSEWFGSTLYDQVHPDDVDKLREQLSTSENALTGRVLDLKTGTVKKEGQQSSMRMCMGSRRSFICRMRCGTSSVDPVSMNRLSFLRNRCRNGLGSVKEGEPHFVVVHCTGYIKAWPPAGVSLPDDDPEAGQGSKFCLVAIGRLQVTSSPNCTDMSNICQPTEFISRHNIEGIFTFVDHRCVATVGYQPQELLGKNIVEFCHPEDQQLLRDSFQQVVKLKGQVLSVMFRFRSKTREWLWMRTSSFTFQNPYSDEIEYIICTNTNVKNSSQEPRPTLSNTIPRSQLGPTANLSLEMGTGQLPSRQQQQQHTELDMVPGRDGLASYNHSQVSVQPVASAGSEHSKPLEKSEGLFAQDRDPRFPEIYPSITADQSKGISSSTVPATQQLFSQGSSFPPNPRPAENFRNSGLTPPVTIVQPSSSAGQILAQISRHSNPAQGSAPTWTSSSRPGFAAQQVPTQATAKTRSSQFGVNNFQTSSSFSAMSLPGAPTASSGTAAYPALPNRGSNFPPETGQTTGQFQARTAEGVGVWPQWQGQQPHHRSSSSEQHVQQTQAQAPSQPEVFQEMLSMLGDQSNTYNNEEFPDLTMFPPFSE
Protocol for human AHR: To detect AHR activation, a reporter gene plasmid was constructed by placing the gene sequence from −1200 bp to 0 bp upstream of CYP1A1 in front of a Nano-luc luciferase reporter gene according to conventional construction methods of reporter gene plasmids in the art. The reporter gene plasmid was transfected into human hepatoma HepG2 cells by a conventional liposome transfection method in the art, and stably expressing cells were selected by puromycin. The selected cells were diluted to a concentration of 5 cells/mL and seeded into a 96-well plate at 100 μL/well, and single clones were obtained after growth. A single clone with normal morphology, normal growth, and the highest induction signal was selected for the human AHR agonist luciferase assay.
On day one, the HepG2 monoclonal cell line stably expressing reporter gene was counted and seeded into a white opaque 96-well plate at a density of 1×10^4 cells per well −8×10^4 cells per well using 100 μL of complete medium without tryptophan and phenol red (minimal essential medium (MEM) without tryptophan and phenol red, 10% (v/v) fetal bovine serum, 1× non-essential amino acids, 1× sodium pyruvate, and 1× GlutaMax). The cells were cultured in an incubator maintained at 37° C. with 5% (v/v) CO2 for 24 hours.
Test compounds were prepared as 10 mmol/L stock solutions in dimethyl sulfoxide (DMSO) and stored at 4° C. protected from light. Before treatment, the compound stock solutions, positive control compounds (e.g., dioxin, 2-(1H-indole-3-carbonyl)thiazole-4-carboxylic acid methyl ester (ITE), or kynurenine), and a negative control compound (DMSO) were subjected to preliminary dilution (determined based on pre-experiments) with the complete medium without tryptophan and phenol red, followed by 3- to 20-fold serial dilutions to 11 concentration points to obtain 2× dilution solutions. When treating the cells, 50 μL of medium was first aspirated from the 96-well plate containing the seeded cells, and then 50 μL of the serially diluted 2× dilution solution was added. Each compound was tested in duplicate, and each duplicate experiment included a well with a concentration of 0 (i.e., containing only the medium) to determine the baseline. The reporter cells were returned to the incubator and incubated for 4 to 24 hours after treatment.
After treatment, 100 μL/well of Nano-Glo Luciferase Assay Reagent was added to the 96-well plate, and the relative light unit (RLU) of each well was measured. The RLU values for the wells with the concentration of 0 on the 96-well plates were averaged to calculate the baseline Ave RLU^Vehicle. The activity of AHR induced by the test compounds at different concentrations was calculated according to Formula (1) based on the ratio of RLU^Test Cmpd from the experimental groups to the baseline Ave RLU^Vehicle, to determine the activation fold.
The activation fold and the corresponding compound concentration were fitted using GraphPad Prism 9 with [Agonist] vs. response—variable slope (four parameters) to calculate the EC50 of the compound for AHR activation.
Protocol for mouse AHR: The reporter gene plasmid was transfected into mouse hepatoma Hepa1-6 cells by a conventional liposome transfection method in the art, and stably expressing cells were selected by puromycin for the mouse AHR agonist luciferase assay.
On day one, the stably expressing reporter gene Hepa1-6 cell line was counted and seeded into a white opaque 96-well plate at a density of 1×10^4 cells per well −8×10^4 cells per well using 100 μL of phenol red-free Dulbecco's Modified Eagle Medium (DMEM) (DMEM without phenol red, 10% fetal bovine serum). The cells were cultured in an incubator maintained at 37° C. with 5% CO2 for 24 hours.
Test compounds were prepared as 10 mM stock solutions in DMSO and stored at 4° C. protected from light. Before treatment, the compound stock solutions, positive control compounds (e.g., dioxin, ITE, or kynurenine), and a negative control compound (DMSO) were subjected to preliminary dilution (determined based on pre-experiments) with complete medium without tryptophan and phenol red, followed by 3- to 20-fold serial dilutions to 11 concentration points to obtain 10× dilution solutions. When treating the cells, 10 μL of medium was first aspirated from the 96-well plate containing the seeded cells, and then 10 μL of the serially diluted 10× dilution solution was added. Each compound was tested in duplicate, and each duplicate experiment included a well with a concentration of 0 (i.e., containing only medium) to determine the baseline. The reporter cells were returned to the incubator and incubated for 4 to 24 hours after treatment.
After treatment, 100 μL/well of Nano-Glo Luciferase Assay Reagent was added to the 96-well plate, and the RLU of each well was measured. The RLU values for the wells with the concentration of 0 on the 96-well plates were averaged to calculate the baseline Ave RLU^Vehicle The activity of AHR induced by the test compounds at different concentrations was calculated according to Formula (1) based on the ratio of RLU^Test Cmpd from the experimental groups to the baseline Ave RLU^Vehicle, to determine the activation fold.
The activation fold and the corresponding compound concentration were fitted using GraphPad Prism 9 with [Agonist] vs. response—variable slope (four parameters) to determine the EC50 of the compound for AHR activation.

Broadly, the EC50 is the concentration giving half of the maximal effect. Turning to `O=C(c1nc(C2(O)CCOC2=O)cs1)c1c[nH]c2cc(F)ccc12` (stereo not drawn) [Compound 2-2], the half-maximal effective concentration (EC50) is ≤ 0.01 µM on rat AHR, < 0.1 µM on mouse AHR and < 0.5 µM on human AHR.

Regarding `O=C(c1nc(C2CCOC2=O)cs1)c1c[nH]c2ccc(F)cc12` (stereo not drawn) [Compound 1-4], the EC50 on rat AHR is ≤ 0.01 µM; on mouse AHR, < 0.1 µM; at human AHR, < 0.5 µM.

On to `O=C(c1nc(C2(O)CCOC2=O)cs1)c1c[nH]c2ccccc12` (stereo not drawn) [Compound 2], for which the concentration giving a half-maximal response (EC50) at rat AHR is ≤ 0.01 µM; at mouse AHR, < 0.1 µM; at human AHR, < 0.5 µM.

Consider `CN1CCC(c2csc(C(=O)c3c[nH]c4cc5c(cc34)OCO5)n2)C1=O` (stereo not drawn) [Compound 7-6], for which the EC50 at rat AHR was 2 to 100 µM; at mouse AHR it was < 0.1 µM; on human AHR, < 0.5 µM.

Regarding `O=C(c1nc(C2(Cl)CCOC2=O)cs1)c1c[nH]c2ccccc12` (stereo not drawn) [Compound 4], the concentration for a half-maximal effect (EC50) at rat AHR was ≤ 0.01 µM; at mouse AHR it was < 0.1 µM; on human AHR it was < 0.5 µM.

For the compound `COc1ccc2[nH]cc(C(=O)c3nc(C4CCN(C)C4=O)cs3)c2c1` (stereo not drawn) [Compound 7-5], the half-maximal effective concentration (EC50) was 2 to 100 µM at rat AHR, < 0.1 µM on mouse AHR and < 0.5 µM at human AHR.

Consider `COC(=O)c1csc(C(=O)c2c[nH]c3ccccc23)n1` [ITE, 2-(1H-indole-3-carbonyl)thiazole-4-carboxylic acid methyl ester, reference compound], for which the EC50 on rat AHR is 0.01 to 2 µM; on mouse AHR, 0.1 to 2 µM; at human AHR it was < 0.5 µM.

`O=C(c1nc(C2CCOC2=O)cs1)c1c[nH]c2cc(F)ccc12` (stereo not drawn) [Compound 1-2]: the values for the EC50 on rat AHR, on mouse AHR and on human AHR were ≤ 0.01 µM, < 0.1 µM and < 0.5 µM, respectively.

Take `COc1ccc2[nH]cc(C(=O)c3nc(C4CCOC4=O)cs3)c2c1` (stereo not drawn) [Compound 1-5]: the EC50 was ≤ 0.01 µM on rat AHR, < 0.1 µM at mouse AHR and < 0.5 µM at human AHR.

With `COc1ccc2c(C(=O)c3nc(C4CCOC4=O)cs3)c[nH]c2c1` (stereo not drawn) [Compound 1-3], the concentration giving a half-maximal response (EC50) is ≤ 0.01 µM at rat AHR, < 0.1 µM on mouse AHR and < 0.5 µM on human AHR.

Regarding `COc1ccc2c(C(=O)c3nc(C4(O)CCOC4=O)cs3)c[nH]c2c1` (stereo not drawn) [Compound 2-3], the values for the EC50 at rat AHR, on mouse AHR and at human AHR were ≤ 0.01 µM, < 0.1 µM and < 0.5 µM, respectively.

With `O=C(c1nc(C2CCOC2=O)cs1)c1c[nH]c2ccccc12` (stereo not drawn) [Compound 1, 3-[2-(1H-indole-3-carbonyl)-1,3-thiazol-4-yl]tetrahydrofuran-2-one], the results for the EC50 at rat AHR, at mouse AHR and on human AHR were ≤ 0.01 µM, < 0.1 µM and < 0.5 µM, respectively.

For `O=C(c1nc(C2(Cl)CCOC2=O)cs1)c1c[nH]c2cc(F)ccc12` (stereo not drawn) [Compound 4-2], the EC50 on rat AHR is ≤ 0.01 µM; on mouse AHR it was < 0.1 µM; at human AHR, < 0.5 µM.
